Test in all cases: Minimum inhibitory concentration (MIC) in vitro, β-lactamase inhibitory activity demonstration
Common to all, as to type: cell-based

One assay relates to E. coli JT39. Conditions: Escherichia coli, compound alone, no ampicillin, read-out: MIC EC, Compound alone. How it is done: (§1) The minimum inhibitory concentrations (MIC) of certain compounds of this invention and of ampicillin, alone or in the presence of compounds of the invention, were determined in vitro for a range of micro-organisms.
In a further assay the test system is Klebsiella aerogenes E70. Conditions: compound alone, no ampicillin, read-out: MIC KA, Compound alone. How it is done:
as §1

In the next assay the test system is Proteus mirabilis C889. The note with it: compound alone, no ampicillin. How it is done:
as §1

The subject of assay [1] is Staphylococcus aureus Russell. Conditions: compound alone, no ampicillin, read-out: MIC SAR, Compound alone. How it is done:
as §1

Converted amounts (≈) assume the structure as drawn.

On to `C=COC/C=C1\O[C@@H]2CC(=O)N2[C@H]1C(=O)OC` [Example 8, Methyl 9-0-vinylclavulanate], for which the minimal inhibitory concentration (MIC) (in general, the lowest concentration found to suppress growth) stood at 500 µg/mL (≈ 2090 µM) in the assay with E. coli JT39, 500 µg/mL (≈ 2090 µM) in the assay on Klebsiella aerogenes E70, 250 µg/mL (≈ 1050 µM) in the assay on Proteus mirabilis C889 and 125 µg/mL (≈ 523 µM) in assay [1].
For the molecule `C=COC/C=C1\O[C@@H]2CC(=O)N2[C@H]1C(=O)O` [Example 10, Lithium 9-0-vinyl-clavulanate], the MIC in the assay with E. coli JT39 amounted to 31.2 µg/mL (≈ 139 µM); in the assay with Klebsiella aerogenes E70, 31.2 µg/mL (≈ 139 µM); against Proteus mirabilis C889, 62.5 µg/mL (≈ 278 µM); in assay [1], 15.6 µg/mL (≈ 69.3 µM).

(Values after patent EP0000804A1, “Process for the preparation of ethers of clavulanic acid” (BEECHAM GROUP PLC, priority 1977, dated 1979).)
